Results as given in publication PMC9516332 (Frontiers in Oncology, 2022).
Read-outs that look alike come from different tables or passages of the source.

Experiments:
Assay in all cases: Kinase panel profiling at 1 µmol/L (MSA or IMAP), percentage inhibition
Assay type in all cases: biochemical
[1] = molecular target: panel of 255 wild-type kinases (Homo sapiens, UniProt Q7KZI7); conditions: MARK2; 1 µmol/L single concentration; read-out: %-inhibition, MARK2
[2] = molecular target: panel of 255 wild-type kinases (Homo sapiens, UniProt Q15418); conditions: kinase RSK1; 1 µmol/L single concentration; read-out: %-inhibition at 1 µmol/L, RSK1
[3] = molecular target: panel of 255 wild-type kinases (Homo sapiens, UniProt Q86V86); conditions: kinase PIM3; 1 µmol/L single concentration; read-out: %-inhibition at 1 µmol/L, PIM3
[4] = molecular target: panel of 255 wild-type kinases (Homo sapiens, UniProt Q13882); conditions: BRK kinase assay; 1 µmol/L single concentration; read-out: %-inhibition BRK
[5] = molecular target: panel of 255 wild-type kinases (Homo sapiens, UniProt O96013); conditions: PAK4; 1 µmol/L single concentration; read-out: %-inhibition, PAK4
[6] = molecular target: panel of 255 wild-type kinases (Homo sapiens, UniProt Q96RG2); conditions: PASK; 1 µmol/L single concentration; read-out: %-inhibition, PASK
[7] = molecular target: panel of 255 wild-type kinases (Homo sapiens, UniProt P11802); conditions: CDK4/CycD3 kinase assay; 1 µmol/L single concentration; read-out: %-inhibition CDK4/CycD3
[8] = molecular target: T1, panel of 255 wild-type kinases (Homo sapiens, UniProt Q02156); conditions: kinase PKCε; 1 µmol/L single concentration; read-out: %-inhibition at 1 µmol/L, PKCε
T1 sequence (Q02156 1-737): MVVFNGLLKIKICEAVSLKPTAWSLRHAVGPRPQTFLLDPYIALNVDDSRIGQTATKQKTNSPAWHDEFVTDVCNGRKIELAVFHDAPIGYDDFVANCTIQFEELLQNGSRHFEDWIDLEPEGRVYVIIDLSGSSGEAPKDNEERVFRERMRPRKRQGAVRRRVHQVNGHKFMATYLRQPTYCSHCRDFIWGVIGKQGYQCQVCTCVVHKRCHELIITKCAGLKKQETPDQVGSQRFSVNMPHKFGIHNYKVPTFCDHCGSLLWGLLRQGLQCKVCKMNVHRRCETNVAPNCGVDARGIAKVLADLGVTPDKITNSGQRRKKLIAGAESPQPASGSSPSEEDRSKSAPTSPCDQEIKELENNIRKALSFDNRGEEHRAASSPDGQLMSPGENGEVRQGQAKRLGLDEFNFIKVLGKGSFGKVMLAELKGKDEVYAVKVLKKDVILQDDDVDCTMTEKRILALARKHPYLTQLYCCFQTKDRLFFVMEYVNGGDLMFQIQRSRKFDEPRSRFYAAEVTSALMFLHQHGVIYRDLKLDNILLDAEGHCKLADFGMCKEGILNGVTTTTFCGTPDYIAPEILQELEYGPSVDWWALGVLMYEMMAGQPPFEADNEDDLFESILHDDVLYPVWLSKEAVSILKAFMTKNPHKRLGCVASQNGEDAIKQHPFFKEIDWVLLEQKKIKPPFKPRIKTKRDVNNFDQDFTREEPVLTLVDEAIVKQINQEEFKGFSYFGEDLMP

[9] = molecular target: panel of 255 wild-type kinases (Homo sapiens, UniProt Q9Y463); conditions: kinase DYRK1B; 1 µmol/L single concentration; read-out: %-inhibition at 1 µmol/L, DYRK1B
[10] = molecular target: panel of 255 wild-type kinases (Homo sapiens, UniProt P23443); conditions: p70S6K; 1 µmol/L single concentration; read-out: %-inhibition, p70S6K
[11] = molecular target: panel of 255 wild-type kinases (Homo sapiens, UniProt Q08345); conditions: kinase DDR1; 1 µmol/L single concentration; read-out: %-inhibition at 1 µmol/L, DDR1
[12] = molecular target: panel of 255 wild-type kinases (Homo sapiens, UniProt P17612); conditions: read-out: %-inhibition at 1 µmol/L, PKACα
[13] = molecular target: T2, panel of 255 wild-type kinases (Homo sapiens, UniProt Q9BXA7); conditions: kinase TSSK1; 1 µmol/L single concentration; read-out: %-inhibition at 1 µmol/L, TSSK1
T2 sequence (Q9BXA7 1-367): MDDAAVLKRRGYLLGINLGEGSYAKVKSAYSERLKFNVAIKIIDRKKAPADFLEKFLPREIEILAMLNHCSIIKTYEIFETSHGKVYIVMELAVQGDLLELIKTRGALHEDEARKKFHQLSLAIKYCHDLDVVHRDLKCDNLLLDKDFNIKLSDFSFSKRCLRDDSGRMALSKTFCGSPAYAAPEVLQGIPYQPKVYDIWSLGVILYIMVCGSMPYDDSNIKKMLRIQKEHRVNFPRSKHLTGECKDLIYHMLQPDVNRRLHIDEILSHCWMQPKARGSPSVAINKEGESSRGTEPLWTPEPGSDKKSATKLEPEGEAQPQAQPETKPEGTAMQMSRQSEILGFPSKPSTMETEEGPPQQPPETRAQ

[14] = molecular target: panel of 255 wild-type kinases (Homo sapiens, UniProt Q05655); conditions: kinase PKCδ; 1 µmol/L single concentration; read-out: %-inhibition at 1 µmol/L, PKCδ
[15] = molecular target: panel of 255 wild-type kinases (Homo sapiens, UniProt P53779); conditions: kinase JNK3; 1 µmol/L single concentration; read-out: %-inhibition at 1 µmol/L, JNK3
[16] = molecular target: panel of 255 wild-type kinases (Homo sapiens, UniProt P54646); conditions: AMPKα2/β1/γ1 kinase assay; 1 µmol/L single concentration; read-out: %-inhibition AMPKα2/β1/γ1
[17] = kinase PKACα, 1 µmol/L single concentration

inhibition at 1 µM [12, 17] [%]	Compound	inhibition at 1 µM [1] [%]	inhibition at 1 µM [2] [%]	inhibition at 1 µM [3] [%]	inhibition at 1 µM [4] [%]	inhibition at 1 µM [5] [%]	inhibition at 1 µM [6] [%]	inhibition at 1 µM [7] [%]	inhibition at 1 µM [8] [%]	inhibition at 1 µM [9] [%]	inhibition at 1 µM [10] [%]	inhibition at 1 µM [11] [%]	inhibition at 1 µM [12] [%]	inhibition at 1 µM [13] [%]	inhibition at 1 µM [14] [%]	inhibition at 1 µM [15] [%]	inhibition at 1 µM [16] [%]
–	CCc1nc(C(N)=O)c(Nc2ccc(N3CCC(N4CCN(C)CC4)CC3)c(OC)c2)nc1NC1CCOCC1 [gilteritinib]	43	54	23	98	74	2.54	46	27	34	79	99	7	95	12	52	21
-20	O=C(Nc1cnn2ccc(N3CCC[C@@H]3c3cc(F)ccc3F)nc12)N1CC[C@H](O)C1 [larotrectinib]	-19	-3.46	-5.31	4.64	-4.61	0.745	-0.745	8	6	-1.58	41	–	4	-5	-7	-6
16	CO[C@]1(C(=O)N[C@@H](C)c2ccc(-n3cc(F)cn3)nc2)CC[C@H](c2nc(C)cc(Nc3cc(C)[nH]n3)n2)CC1 [pralsetinib]	-15	26	-0.165	49	66	-2.38	-1	0.425	-12	29	98	–	4.54	-3	6	83
-5	COc1ccc(CN2C3CC2CN(c2ccc(-c4cc(OCC(C)(C)O)cn5ncc(C#N)c45)cn2)C3)cn1 [selpercatinib]	26	51	-2.65	19	8	-2.29	0.921	7	1.42	42	89	–	45	-2	-8.47	28
-28	Cn1cnc2c(F)c(Nc3ccc(Br)cc3Cl)c(C(=O)NOCCO)cc21 [selumetinib]	-14	-8	-0.0221	6	4.6	-2	-1.85	0.617	-3.17	8	4.73	–	0.947	-4.35	2.14	1.9
-20	Cc1cc(Nc2ncnc3ccc(NC4=NC(C)(C)CO4)cc23)ccc1Oc1ccn2ncnc2c1 [tucatinib]	-12	-4.66	-1.3	8	5	0.181	-2	-0.0549	-1.89	15	9	–	2.58	2.67	1.13	-1.44

Compound	inhibition at 1 µM [12, 17] [%]	inhibition at 1 µM [1] [%]	inhibition at 1 µM [2] [%]	inhibition at 1 µM [3] [%]	inhibition at 1 µM [4] [%]	inhibition at 1 µM [5] [%]	inhibition at 1 µM [6] [%]	inhibition at 1 µM [7] [%]	inhibition at 1 µM [8] [%]	inhibition at 1 µM [9] [%]	inhibition at 1 µM [10] [%]	inhibition at 1 µM [11] [%]	inhibition at 1 µM [12] [%]	inhibition at 1 µM [13] [%]	inhibition at 1 µM [14] [%]	inhibition at 1 µM [15] [%]	inhibition at 1 µM [16] [%]
CCN1CCN(c2ccc(Nc3cc(N(C)C(=O)Nc4c(Cl)c(OC)cc(OC)c4Cl)ncn3)cc2)CC1 [infigratinib]	-28	-9	-3	0.254	5.46	6	-1.46	66	4.68	-2.3	5.33	96	–	3.24	-3	4	-2
CCN1C(=O)N(c2c(F)c(OC)cc(OC)c2F)Cc2cnc3[nH]c(CN4CCOCC4)cc3c21 [pemigatinib]	-9	50	-1.79	-8	11	-1.88	-5	9	5	6	-0.418	41	–	8	0.471	-7	-5
FC(F)(F)c1ccc(CNc2ccc(Cc3c[nH]c4ncc(Cl)cc34)cn2)cn1 [pexidartinib]	-7	5.3	7.43	4.68	15	11	6	-1.58	1.26	4.37	31	84	–	12	6.48	0.454	-7
CCn1c(=O)c(-c2cc(NC(=O)Nc3ccccc3)c(F)cc2Br)cc2cnc(NC)cc21 [ripretinib]	-16	-2.22	8	1.11	36	0.34	-1	-1.19	6	-2.38	64	90	–	-4.3	54	10	-22
